Test results as given in PubChem BioAssay (NCI).
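Method: 48-hour compound exposure of cells in 96-well plates, five concentrations, linear interpolation of endpoints. At the GI50, growth is halved. At the TGI there is no net growth.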

Legend:
Experiment in all cases: NCI-60 cell line screen, 48 h
[1] = system: 786-0 renal
[2] = system: A498 renal
[3] = system: A549 NSCLC
[4] = system: ACHN renal
[5] = system: BT-549 breast
[6] = system: CAKI-1 renal
[7] = system: CCRF-CEM leukemia
[8] = system: COLO 205 colon
[9] = system: DU-145 prostate
[10] = system: EKVX NSCLC
[11] = system: HCC-2998 colon
[12] = system: HCT-116 colon
[13] = system: HCT-15 colon
[14] = system: HL-60(TB) leukemia
[15] = system: HOP-62 NSCLC
[16] = system: HOP-92 NSCLC
[17] = system: HS 578T breast
[18] = system: HT29 colon
[19] = system: IGROV1 ovarian
[20] = system: K-562 leukemia
[21] = system: KM12 colon
[22] = system: LOX IMVI melanoma
[23] = system: M14 melanoma
[24] = system: MALME-3M melanoma
[25] = system: MCF7 breast
[26] = system: MDA-MB-231 breast
[27] = system: MDA-MB-435
[28] = system: MOLT-4 leukemia
[29] = system: NCI-H226 lung
[30] = system: NCI-H23 lung
[31] = system: NCI-H460 lung
[32] = system: NCI-H522 lung
[33] = system: NCI/ADR-RES ovarian
[34] = system: OVCAR-3 ovarian
[35] = system: OVCAR-4 ovarian
[36] = system: OVCAR-5 ovarian
[37] = system: OVCAR-8 ovarian
[38] = system: PC-3 prostate
[39] = system: RPMI-8226 leukemia
[40] = system: RXF 393 renal
[41] = system: SF-268 CNS
[42] = system: SF-295 CNS
[43] = system: SF-539 CNS
[44] = system: SK-MEL-2 melanoma
[45] = system: SK-MEL-28 melanoma
[46] = system: SK-MEL-5 melanoma
[47] = system: SK-OV-3 ovarian
[48] = system: SN12C renal
[49] = system: SNB-19 CNS
[50] = system: SNB-75 CNS
[51] = system: SR leukemia
[52] = system: SW-620 colon
[53] = system: T-47D breast
[54] = system: TK-10 renal
[55] = system: U251 CNS
[56] = system: UACC-257 melanoma
[57] = system: UACC-62 melanoma
[58] = system: UO-31 renal

## Oc1ccccc1N=Cc1c(O)ccc2ccccc12
[1]
  GI50: 19.5 µM
  TGI: 68.3 µM
[2]
  GI50: 5.61 µM
  TGI: 23.6 µM
[3]
  GI50: 24.6 µM
  TGI: 91.9 µM
[4]
  GI50: 4.96 µM
  TGI: 42.6 µM
[5]
  GI50: 5.88 µM
  TGI: 30 µM
[6]
  GI50: 5.61 µM
  TGI: 26.6 µM
[7]
  GI50: 3.2 µM
  TGI: 47.1 µM
[8]
  GI50: 30.7 µM
  TGI: > 100 µM
[9]
  GI50: 19.5 µM
  TGI: > 100 µM
[10]
  GI50: 15.8 µM
  TGI: 57.8 µM
[11]
  GI50: 16.5 µM
  TGI: 72.4 µM
[12]
  GI50: 13 µM
  TGI: 46 µM
[13]
  GI50: 15.3 µM
  TGI: > 100 µM
[14]
  GI50: 4.95 µM
  TGI: 33.3 µM
[15]
  GI50: 17.5 µM
  TGI: 97.6 µM
[16]
  GI50: 3.17 µM
  TGI: 18.5 µM
[17]
  GI50: 15 µM
  TGI: > 100 µM
[18]
  GI50: 16.4 µM
  TGI: 40.1 µM
[19]
  GI50: 4.84 µM
  TGI: 26.1 µM
[20]
  GI50: 15.3 µM
  TGI: > 100 µM
[21]
  GI50: 16.5 µM
  TGI: > 100 µM
[22]
  GI50: 10.6 µM
  TGI: 45 µM
[23]
  GI50: 13.4 µM
  TGI: 40.2 µM
[24]
  GI50: 5 µM
  TGI: 27 µM
[25]
  GI50: 8.35 µM
  TGI: 52.3 µM
[26]
  GI50: 5.75 µM
  TGI: 27.5 µM
[27]
  GI50: 17 µM
  TGI: 52.6 µM
[28]
  GI50: 10.2 µM
  TGI: 80.3 µM
[29]
  GI50: 11.5 µM
  TGI: 61.7 µM
[30]
  GI50: 13.8 µM
  TGI: 49.8 µM
[31]
  GI50: 10.7 µM
  TGI: 47 µM
[32]
  GI50: 6.73 µM
  TGI: 39.3 µM
[33]
  GI50: 5.58 µM
  TGI: 40.8 µM
[34]
  GI50: 11.9 µM
  TGI: 46.1 µM
[35]
  GI50: 13.4 µM
  TGI: 75.4 µM
[36]
  GI50: 24.6 µM
  TGI: 62.9 µM
[37]
  GI50: 18.1 µM
  TGI: 72 µM
[38]
  GI50: 7.28 µM
  TGI: 66.2 µM
[39]
  GI50: 2.77 µM
  TGI: 37 µM
[40]
  GI50: 10.6 µM
  TGI: 34.6 µM
[41]
  GI50: 15.8 µM
  TGI: 76.8 µM
[42]
  GI50: 11.7 µM
  TGI: 40.4 µM
[43]
  GI50: 14.2 µM
  TGI: 39 µM
[44]
  GI50: 13.3 µM
  TGI: 40.5 µM
[45]
  GI50: 22.4 µM
  TGI: 84.5 µM
[46]
  GI50: 9.99 µM
  TGI: 34.7 µM
[47]
  GI50: 15.9 µM
  TGI: 54.7 µM
[48]
  GI50: 15.4 µM
  TGI: 71.9 µM
[49]
  GI50: 21.8 µM
  TGI: > 100 µM
[50]
  GI50: 10.4 µM
  TGI: 62.5 µM
[51]
  GI50: 15.3 µM
  TGI: 47.7 µM
[52]
  GI50: 17.3 µM
  TGI: > 100 µM
[53]
  GI50: 7.5 µM
  TGI: 54.9 µM
[54]
  GI50: 14.2 µM
  TGI: 66.2 µM
[55]
  GI50: 19.8 µM
  TGI: 67.9 µM
[56]
  GI50: 15.2 µM
  TGI: 56.6 µM
[57]
  GI50: 9.78 µM
  TGI: 38.5 µM
[58]
  GI50: 3.59 µM
  TGI: 28.3 µM
